US5656662A, “Synthesis of optically pure 4-alkenyl- or 4-alkanyl-2-hydroxytetronic acids” (The Ohio State University Research Foundation, priority 1995, dated 1997)

What was measured:
Assay type in all cases: cell-based
phospholipase A2 = test: Cellular phospholipase A2 activity in human monocytes; set-up: key: NE: No effect; INHIB: Inhibition; STIM: Stimulation; IC40: 40% Inhibitory Concentration; EC50: 50% Effective Concentration; TC: Tolerated Concentration; IA: Interferes with Assay
Protocol: This assay measures the ability of test compounds to modulate the activity of the cellular phospholipase A2 in human monocytes. Compounds are tested for their ability to inhibit stimulate phospholipase A2 activity or activate basal activity in unstimulated monocytes. Test compounds are incubated for ninety minutes with purified human monocytes at four dilutions over a range of three log10 concentrations. Where appropriate, zymosan is used to stimulate the monocytes.
Monocytes with the arachidonyl moiety of phospholipids radiolabelled are utilized in a 96 well format. Percent release of radiolabelled fatty acid into the extracellular medium is quantified by liquid scintillation counting. All compounds are tested in duplicate with controls and standards.

IL-1ra = IL-1ra secretion from purified human monocytes; set-up: key: NE: No effect; INHIB: Inhibition; STIM: Stimulation; IC40: 40% Inhibitory Concentration; EC50: 50% Effective Concentration; TC: Tolerated Concentration; IA: Interferes with Assay
Protocol: This assay determines the effect of test compounds on the secretion of IL-1ra from purified human monocytes. Compounds are tested for their ability to downregulate or upregulate the production of IL-1ra in unstimulated monocytes and in activated monocytes. Test compounds are incubated for sixteen hours with purified human monocytes at four dilutions over a range of three log10 concentrations. Where appropriate, lipopolysaccharide (LPS) is used to stimulate the monocytes.
The level of IL-1ra in the resultant supernatants is quantitated in a solid phase Enzyme-linked Immunoassay (EIA) performed in a 96 well format. IL-1ra present in the samples is captured by a specific monoclonal antibody immobilized on the well, and probed with an anti-IL-1ra polyclonal antibody. A second antibody conjugated to horseradish peroxidase is then added, followed by an appropriate substrate. The levels of IL-1ra are determined by interpolation of the resultant color change in the substrate from a standard curve. […]
This assay determines the effect of test compounds on the secretion of IL-1ra from purified human monocytes. […] The level of IL-1ra in the resultant supernatants is quantitated in a solid phase Enzyme-linked Immunoassay (EIA) performed in a 96 well format. […] The levels of IL-1ra are determined by interpolation of the resultant color change in the substrate from a standard curve. […]

tissue factor (TF) = test: Membrane bound tissue factor production from purified human monocytes; set-up: key to EFFECT on TISSUE FACTOR: NE: No effect; INHIB: Inhibition; STIM: Stimulation; IC40: 40% Inhibitory Concentration; EC50: 50% Effective Concentration; TC: Tolerated Concentration; IA: Interferes with Assay
Protocol: This assay determines the effect of test compounds on the production of membrane bound tissue factor (TF) from purified human monocytes. Compounds are tested for their ability to downregulate the production of TF in activated monocytes, or upregulate production of TF in unstimulated monocytes. Test compounds are incubated for sixteen hours with purified human monocytes at four dilutions over a range of three log10 concentrations. Where appropriate, lipopolysaccharide (LPS) is used to stimulate the monocytes.
After the above period of incubation, medium is aspirated from the monocytes, and the cells are solubilized in Triton-X 100. The level of TF in the soluble fraction is quantitated in a solid phase Enzyme-linked Immunoassay (EIA) performed in a 96 well format. TF present in the samples is captured by a specific monoclonal antibody immobilized on the well, and detected using a biotinylated antibody fragment specific for bound TF, followed by streptavidin conjugated to horseradish peroxidase and an appropriate substrate. The levels of TF are determined by interpolation of the resultant color change in the substrate from a standard curve. All supernatants are tested in duplicate with controls and standards.

TxA2 = TxA2 production by purified human monocytes; set-up: key to EFFECT on TxA2: NE: No effect; INHIB: Inhibition; STIM: Stimulation; IC40: 40% Inhibitory Concentration; EC50: 50% Effective Concentration; TC: Tolerated Concentration; IA: Interferes with Assay
Protocol: This procedure measures the ability of test compounds to modulate the amount of TxA2 (the major cyclo-oxygenase product) produced by purified human monocytes. Compounds are tested for their ability to downregulate the secretion of TxA2 from activated monocytes, or upregulate secretion of TxA2 from unstimulated monocytes. Test compounds are incubated for ninety minutes with purified human monocytes at four dilutions over a range of three log10 concentrations. Where appropriate, zymosan is used to stimulate the monocytes.
The level of TxA2 in the resultant supernatants is quantitated by immunoassay performed in a 96 well format. TxA2 levels modulated by unknown compounds are determined by interpolation from a standard curve. All compounds are tested in duplicate with controls and standards.

[1] = system: adhesion of purified human monocytes to human umbilical vein endothelial cell (HUVEC) cultures; test: Adhesion of purified human monocytes to HUVEC cultures; set-up: key: NE: No effect; INHIB: Inhibition; STIM: Stimulation; IC40: 40% Inhibitory Concentration; EC50: 50% Effective Concentration; TC: Tolerated Concentration; IA: Interferes with Assay; settings: STIMULATED
Protocol: This assays measures the ability of test compounds to modulate adhesion of purified human monocytes to human umbilical vein endothelial cell (HUVEC) cultures. HUVECs are cultured to confluence in 96-well plates. Purified human monocytes are labelled with fluorescent dye. Triplicate cultures of HUVECs and monocytes are treated with four dilutions of test compound over a range of three log10 concentrations, in addition to stimulated and unstimulated controls. One hour after treatment, TNFα is added to HUVEC cultures to stimulate production of adhesion molecules. After a twelve hour incubation, the treated monocytes are added to their corresponding HUVEC cultures and incubated for ten minutes. The stimulation index (S.I.) is determined by comparing the fluorescence of treated cultures to untreated controls using a fluorometric readout in a 96-well format.

## CCCCCCCCCCCCCC/C=C\CC[C@@H]1OC(=O)C(O)=C1O [(S)-3,4-Dihydroxy-5-[(Z)-3-octadecenyl]-2(5H)-furanone]
Phospholipase A2; STIMULATED
  EFFECT on PLA2: NE
Phospholipase A2; UNSTIMULATED
  EFFECT on PLA2: NE
IL-1ra; STIMULATED
  EFFECT on IL1ra: NE
IL-1ra; UNSTIMULATED
  EFFECT on IL1ra: NE
Tissue factor (TF); Homo sapiens, Monocyte, STIMULATED, STIM
  EC50: 35 µM
Tissue factor (TF); STIMULATED
  EFFECT on TISSUE FACTOR: STIM
Tissue factor (TF); UNSTIMULATED
  EFFECT on TISSUE FACTOR: NE
TxA2; Homo sapiens, Monocyte, STIMULATED, INHIB
  EC50: 5 µM
TxA2; STIMULATED
  EFFECT on TxA2: INHIB
TxA2; UNSTIMULATED
  EFFECT on TxA2: NE
[1]
  EFFECT on ADHESION: NE
